PubChem BioAssay AID248 (DTP/NCI, 2004)
Values joined by “and” are separate entries in the source; they are usually repeats but may differ in a detail not shown here. Equal entries are not always repeated. Inconclusive results and toxic doses are left out. No stated cut-off is given here; in the data, active means T/C of 150% or more; inactive means T/C below 125%.

Tested on: L1210 leukemia ip in BDF1 mice, survival T/C
Assay: NCI In Vivo Anticancer Drug Screen. Data for tumor model L1210 Leukemia (intraperitoneal) in B6D2F1 (BDF1) mice
Conditions: endpoint: mean survival time, higher = longer survival
Outline: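 Antitumor effect is assessed in tumor-bearing animals. Survival in the compound arm is compared with a vehicle-dosed control arm and expressed as their quotient.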

[1] = dose: 100.0 mg/kg/injection, schedule: Q01DX001 (ip), vehicle: saline with Tween-80
[2] = dose: 100.0 mg/kg/injection, schedule: Q04DX003 (ip), vehicle: saline
[3] = dose: 200.0 mg/kg/injection, schedule: Q04DX003 (ip), vehicle: saline
[4] = dose: 400.0 mg/kg/injection, schedule: Q04DX003 (ip), vehicle: saline

Measured: T/C

C(=P(c1ccccc1)(c1ccccc1)c1ccccc1)[P+](c1ccccc1)(c1ccccc1)c1ccccc1
inactive: dose: 0.78 mg/kg/injection, schedule: Q01DX009 (ip), vehicle: saline 102 % of control and 109 % of control | dose: 1.56 mg/kg/injection, schedule: Q01DX009 (ip), vehicle: saline 98 % of control and 88 % of control | dose: 3.12 mg/kg/injection, schedule: Q01DX009 (ip), vehicle: saline 100 % of control | dose: 3.13 mg/kg/injection, schedule: Q01DX001 (ip), vehicle: saline 90 % of control | dose: 3.13 mg/kg/injection, schedule: Q04DX002 (ip), vehicle: saline 97 % of control | dose: 3.13 mg/kg/injection, schedule: Q04DX003 (ip), vehicle: saline 102 % of control | dose: 6.0 mg/kg/injection, schedule: Q01DX009 (ip), vehicle: saline 106 % of control | dose: 6.25 mg/kg/injection, schedule: Q01DX001 (ip), vehicle: saline 100 % of control | dose: 6.25 mg/kg/injection, schedule: Q01DX009 (ip), vehicle: saline 117 % of control | dose: 6.25 mg/kg/injection, schedule: Q04DX002 (ip), vehicle: saline 96 % of control and 100 % of control | dose: 6.25 mg/kg/injection, schedule: Q04DX003 (ip), vehicle: saline 106 % of control | dose: 9.3 mg/kg/injection, schedule: Q01DX009 (ip), vehicle: saline 95 % of control | dose: 12.5 mg/kg/injection, schedule: Q01DX001 (ip), vehicle: saline 97 % of control | dose: 12.5 mg/kg/injection, schedule: Q01DX009 (ip), vehicle: saline 115 % of control and 117 % of control | dose: 12.5 mg/kg/injection, schedule: Q04DX002 (ip), vehicle: saline 97 % of control and 99 % of control | dose: 12.5 mg/kg/injection, schedule: Q04DX003 (ip), vehicle: saline 101 % of control | dose: 13.0 mg/kg/injection, schedule: Q01DX009 (ip), vehicle: saline 93 % of control | dose: 100.0 mg/kg/injection, schedule: Q04DX002 (ip), vehicle: saline 90 % of control | dose: 200.0 mg/kg/injection, schedule: Q04DX002 (ip), vehicle: saline 93 % of control

c1cc2ccc1CCc1ccc(cc1)CC2
inactive: [1] 100 % of control | dose: 100.0 mg/kg/injection, schedule: Q01DX009 (ip), vehicle: saline sonified 94 % of control | dose: 200.0 mg/kg/injection, schedule: Q01DX001 (ip), vehicle: saline with Tween-80 102 % of control | dose: 200.0 mg/kg/injection, schedule: Q01DX009 (ip), vehicle: saline sonified 99 % of control | dose: 400.0 mg/kg/injection, schedule: Q01DX001 (ip), vehicle: saline with Tween-80 98 % of control | dose: 400.0 mg/kg/injection, schedule: Q01DX009 (ip), vehicle: saline sonified 93 % of control

CCOC(=O)C(=O)Nc1ncn[nH]1
inactive: dose: 100.0 mg/kg/injection, schedule: Q01DX005 (ip), vehicle: Klucel (hydroxypropylcellulose) (HPC) 95 % of control | dose: 100.0 mg/kg/injection, schedule: Q01DX009 (ip), vehicle: Klucel (hydroxypropylcellulose) (HPC) 96 % of control | dose: 100.0 mg/kg/injection, schedule: Q04DX002 (ip), vehicle: Klucel (hydroxypropylcellulose) (HPC) 96 % of control | dose: 200.0 mg/kg/injection, schedule: Q01DX005 (ip), vehicle: Klucel (hydroxypropylcellulose) (HPC) 98 % of control | dose: 200.0 mg/kg/injection, schedule: Q01DX009 (ip), vehicle: Klucel (hydroxypropylcellulose) (HPC) 104 % of control | dose: 200.0 mg/kg/injection, schedule: Q04DX002 (ip), vehicle: Klucel (hydroxypropylcellulose) (HPC) 90 % of control | dose: 400.0 mg/kg/injection, schedule: Q01DX005 (ip), vehicle: Klucel (hydroxypropylcellulose) (HPC) 103 % of control | dose: 400.0 mg/kg/injection, schedule: Q01DX009 (ip), vehicle: Klucel (hydroxypropylcellulose) (HPC) 93 % of control | dose: 400.0 mg/kg/injection, schedule: Q04DX002 (ip), vehicle: Klucel (hydroxypropylcellulose) (HPC) 101 % of control

COCC1=CC(=O)CCC1CC1OC1(C)C (centres undefined)
inactive: dose: 50.0 mg/kg/injection, schedule: Q01DX009 (ip), vehicle: saline with Tween-80 96 % of control | dose: 100.0 mg/kg/injection, schedule: Q01DX009 (ip), vehicle: saline with Tween-80 96 % of control | dose: 200.0 mg/kg/injection, schedule: Q01DX009 (ip), vehicle: saline with Tween-80 96 % of control

O=[N+]([O-])c1cc(Br)ccc1N1CCCC1
inactive: [2] 88 % of control | [3] 101 % of control | [4] 93 % of control

N=C(N)S/C=C/C(=O)O
inactive: dose: 25.0 mg/kg/injection, schedule: Q04DX002 (ip), vehicle: saline with Tween-80 96 % of control | dose: 50.0 mg/kg/injection, schedule: Q04DX002 (ip), vehicle: saline with Tween-80 96 % of control | dose: 100.0 mg/kg/injection, schedule: Q04DX002 (ip), vehicle: saline with Tween-80 96 % of control and 98 % of control

O=C(O)c1ccc(Br)c2ccccc12
inactive: dose: 75.0 mg/kg/injection, schedule: Q01DX001 (ip), vehicle: carboxymethylcellulose (CMC) 95 % of control | dose: 150.0 mg/kg/injection, schedule: Q01DX001 (ip), vehicle: carboxymethylcellulose (CMC) 98 % of control

CCN(CC)CCCC(C)Nc1cc(C)nc(/N=C(\N)Nc2ccc(Cl)c(Cl)c2)n1 (centres undefined)
inactive: dose: 25.0 mg/kg/injection, schedule: Q01DX009 (ip), vehicle: Klucel (hydroxypropylcellulose) (HPC) 96 % of control | dose: 50.0 mg/kg/injection, schedule: Q01DX009 (ip), vehicle: Klucel (hydroxypropylcellulose) (HPC) 94 % of control | dose: 100.0 mg/kg/injection, schedule: Q01DX001 (ip), vehicle: Klucel (hydroxypropylcellulose) (HPC) 92 % of control

CC/C(C)=N/C(=O)NN
inactive: [1] 103 % of control

O=[N+]([O-])c1ccc(OCc2cccc(Cl)c2S(=O)(=O)F)c(Cl)c1
inactive: dose: 100.0 mg/kg/injection, schedule: Q04DX003 (ip), vehicle: gum acacia 98 % of control | dose: 200.0 mg/kg/injection, schedule: Q04DX003 (ip), vehicle: gum acacia 104 % of control | dose: 400.0 mg/kg/injection, schedule: Q04DX003 (ip), vehicle: gum acacia 97 % of control

CC(=O)Oc1c(C)cccc1C(=O)O
inactive: dose: 100.0 mg/kg/injection, schedule: Q04DX003 (ip), vehicle: Klucel (hydroxypropylcellulose) (HPC) 92 % of control | dose: 200.0 mg/kg/injection, schedule: Q04DX003 (ip), vehicle: Klucel (hydroxypropylcellulose) (HPC) 103 % of control | dose: 400.0 mg/kg/injection, schedule: Q04DX003 (ip), vehicle: Klucel (hydroxypropylcellulose) (HPC) 88 % of control

COC(=O)c1ccccc1OC(=O)c1ccccc1
inactive: [2] 105 % of control | [3] 97 % of control | [4] 105 % of control

C=C[N+](C)(C)C
inactive: dose: 5.0 mg/kg/injection, schedule: Q01DX001 (ip), vehicle: saline 100 % of control | dose: 10.0 mg/kg/injection, schedule: Q01DX001 (ip), vehicle: saline 107 % of control | dose: 20.0 mg/kg/injection, schedule: Q01DX001 (ip), vehicle: saline 103 % of control | dose: 40.0 mg/kg/injection, schedule: Q01DX001 (ip), vehicle: saline 103 % of control

CCCCCCCCCCCC[N+]1(CCCCCCCCCCCC)CCCC(C)C1 (centres undefined)
inactive: dose: 3.0 mg/kg/injection, schedule: Q04DX002 (ip), vehicle: Klucel (hydroxypropylcellulose) (HPC) 109 % of control | dose: 6.0 mg/kg/injection, schedule: Q04DX002 (ip), vehicle: Klucel (hydroxypropylcellulose) (HPC) 87 % of control

Cc1ccc(S(=O)(=O)Oc2ccc(N(CC(=O)O)S(=O)(=O)c3ccc(C)cc3)cc2)cc1
inactive: dose: 100.0 mg/kg/injection, schedule: Q01DX001 (ip), vehicle: water 98 % of control | dose: 100.0 mg/kg/injection, schedule: Q04DX003 (ip), vehicle: water 94 % of control | dose: 200.0 mg/kg/injection, schedule: Q01DX001 (ip), vehicle: water 96 % of control | dose: 200.0 mg/kg/injection, schedule: Q04DX003 (ip), vehicle: water 88 % of control | dose: 400.0 mg/kg/injection, schedule: Q01DX001 (ip), vehicle: water 97 % of control | dose: 400.0 mg/kg/injection, schedule: Q04DX003 (ip), vehicle: water 96 % of control

COc1ccc(OC)c(NC(=O)C2CC2)c1
inactive: [2] 94 % of control | [3] 99 % of control | [4] 103 % of control

C=C(Br)CNC(=O)C(C)(C)C
inactive: dose: 100.0 mg/kg/injection, schedule: Q04DX003 (ip), vehicle: saline with Tween-80 97 % of control | dose: 200.0 mg/kg/injection, schedule: Q04DX003 (ip), vehicle: saline with Tween-80 97 % of control | dose: 400.0 mg/kg/injection, schedule: Q04DX003 (ip), vehicle: saline with Tween-80 98 % of control
